Reference: patent US8153784B2, “Imaging of enzyme activity” (The General Hospital Corporation, priority 2004, dated 2012)
Values joined by “and” are separate entries in the source; they are usually repeats but may differ in a detail not shown here. Identical values can stand only once.

Key:
Type in all cases: biochemical
[1] = target: T1, human myeloperoxidase (MPO) (Homo sapiens, UniProt P05164); assay: Pseudo-first-order rate constants of MPO-mediated conversion (relaxation times over time, 0.47 T)
T1 construct: purchased BioDesign Inc
Protocol: Kinetics of the samples were observed by measuring T1 and T2 at 0.47 T and 40° C. of the samples over at least a 24 hour period. At different time points, 1 M of sodium azide (final concentration=0.17 M) was added to stop the enzyme mediated reaction. The resultant progress curve was fitted with an empirical mathematical model and analyzed according to the Guggenheim method to obtain the pseudo-first-order rate constants (Guggenheim E A. Philos. Mag. 1926; 2:538).
An important property of a suitable substrate for an enzyme is the kinetics of enzymatic reaction. To determine the utility of the paramagnetic complexes as suitable substrates for human myeloperoxidase (MPO), we measured the pseudo-first-order rate constant of these substrates in MPO, and compared to the same substrates' reactions in Horse Radish Peroxidase (HRP) by monitoring the changes in relaxation time over time. […] The results shown were obtained using T1 measurements. T2 measurements yielded nearly identical results. The results are presented as mean±SD. N/A=not applicable.

MPO = target: T2, MPO (Homo sapiens, UniProt P05164); assay: MR imaging at 1.5 T of substrate solutions with MPO
T2 construct: purchased BioDesign Inc
Protocol: Standard 96-well plates were prepared and imaged on a 1.5 T whole body clinical General Electric Signa MRI scanner utilizing a standard 3 inch surface coil. Inversion recovery sequences were used to measure T1 relaxation and spin echo sequences were utilized to measure T2 relaxation. T2 weighted images were obtained with TR=5000 ms and TE=100 ms with a fast spin echo sequence. T1 weighted images were obtained with spin echo sequences with the following parameters: TR=100, 200, 350, or 500, TE=11. For the Matrigel™ experiments, a relatively T2 weighted image was obtained at TR=300 ms and TE=200 ms. Single-exponential models were used to obtain T1 and T2. The relaxivities were computed by normalizing relaxation rates to the concentration of gadolinium in each sample, obtained by inductive coupled plasma (ICP) analysis performed by Galbraith Laboratories.
Because of the relatively higher relaxivity and relatively faster kinetics with MPO, 5-HT-DOTA was chosen for further evaluation by imaging on a clinical 1.5 T MRI scanner. FIGS. 6A-6F and FIGS. 7A-7F illustrate the relative signal changes for typical T1- and T2-weighted images in aqueous solutions with MPO. […] An approximately 40% signal difference was identified at 1300-2000 U (FIGS. 6C-6D), in keeping with the amount of relaxivity shortening found in the relaxation experiments ˜70%).

Myeloperoxidase (MPO) = target: T3, Myeloperoxidase (MPO) (Homo sapiens, UniProt P05164); assay: MPO-mediated oligomerization of 2Gd^3+: UV, HPLC, MALDI-MS, relaxivity; details: for degree of polymerization (N) of oligomerized products: MPO/H2O2, MALDI-MS
T3 construct: purchased Biodesign Int
T3 sequence (P05164 49-745): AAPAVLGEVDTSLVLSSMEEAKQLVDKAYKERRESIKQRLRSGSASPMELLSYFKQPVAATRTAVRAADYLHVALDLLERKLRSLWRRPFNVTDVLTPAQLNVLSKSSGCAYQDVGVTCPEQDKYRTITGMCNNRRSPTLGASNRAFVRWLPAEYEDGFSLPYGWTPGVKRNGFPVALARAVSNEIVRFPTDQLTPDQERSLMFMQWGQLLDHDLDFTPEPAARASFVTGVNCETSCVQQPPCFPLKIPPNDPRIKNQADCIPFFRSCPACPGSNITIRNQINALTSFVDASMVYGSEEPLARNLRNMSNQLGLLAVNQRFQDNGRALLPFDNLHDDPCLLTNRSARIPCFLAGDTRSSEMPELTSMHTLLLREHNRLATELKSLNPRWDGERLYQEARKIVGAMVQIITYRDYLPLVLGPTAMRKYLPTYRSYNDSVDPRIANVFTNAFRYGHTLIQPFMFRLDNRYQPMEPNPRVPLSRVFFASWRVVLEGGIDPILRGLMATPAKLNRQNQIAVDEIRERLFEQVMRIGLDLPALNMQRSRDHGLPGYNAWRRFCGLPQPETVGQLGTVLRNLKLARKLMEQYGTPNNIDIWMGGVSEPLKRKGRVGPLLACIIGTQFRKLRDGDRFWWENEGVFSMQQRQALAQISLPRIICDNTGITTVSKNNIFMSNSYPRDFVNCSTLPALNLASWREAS
Protocol: Myeloperoxidase was purchased from Biodesign Int. and was used as received, activity was measured as described by Klebanoff, S. J.; Waltersdorph, A. M.; Rosen, H.; Methods in Enzymology. Vol. 105, p 399-403.
We incubated 0.6 mL of a solution 10^4M of Gd^3+2 at pH=7.2/25° with 4 units of MPO and an excess of H2O2 for 90 minutes. […] The intensity of these new bands increased for a period of about 90 min, and that 90% of the change could be observed within first 30 min. The reaction was quenched by freezing the mixture in liquid N2. […] However, higher N value species were undetectable.
Four solutions with concentrations ranging from 10^−4 to 10^−3 where separately incubated as above and the T1 value were measured at 0.47T using standard inverse recovery sequence. The fitting of these values, following published procedures, yielded a r1=5.9 mM^−1s^−1. […] For longer incubation times, no linear correlation of T1 from Gd concentration could be obtained due to the precipitation of CA at millimolar concentrations. Lower relaxivity increase (32%) was observed when the activity of the enzyme was lowered to 1 unit.
Further characterization of r1 effects modulated by MPO was accomplished by using a 4×2 well plate array of samples prepared as shown in FIG. 14: Row 1 contained 0.3 mL Gd-DTPA-diSer solutions at pH 7.2; Row 2 included the samples the same concentrations and 4 units of MPO and 2 μL of a 3% of aqueous H2O2. Fitting the T1 values of the wells in row 1 afforded r1 of 4.7 mM^−1s^−1. […] In this case, we observed precipitation of insoluble products during the MRI scan. The fitting of the values measured in other 3 wells, the relaxivity was 5.5 mM^−1s^−1.
Indium-111 labeled bis-5-HT-DTPA was prepared by using transchelation from ^111In-oxiquinoline complex (oxine, Cardinal Health, Cleveland Ohio). To prepare ^111In-bis-5-HT-DTPA, 50 μg of bis-5-HT-DTPA (1 mg/ml) were mixed with 1 mCi ^111In-oxiquinoline solution in 0.7-1.0 ml saline and incubated for 1 hour under argon. Transchelation and purity was controlled by HPLC (Discovery C-18 column, 25×3 mm, Supelco) using 0-55% gradient of acetonitrile in water. Human myeloperoxidase was obtained from BioDesign, Inc., and its activity determined by using the method described by Klebanoff. To determine if the Gd compounds were substrates for human MPO, MPO-mediated oligomerization was monitored by size exclusion HPLC and by measuring ΔT1 on a Bruker Minispec 120 NMR spectrometer using a standard inversion recovery sequence. The degree of oligomerization was determined by mass spectroscopy (MALDI-MS).

Row | fraction of the final relaxation rate obtained within the first 5 minutes [1] | Pseudo first-order rate constant ([1]; from T1 measurements, mean±SD) | MPO activity giving visible imaging signal changes (MPO) | signal difference between MPO-converted product and substrate solution (MPO; 1300-2000 U) | SMILES | increase of r1 compared with the initial substrate (Myeloperoxidase (MPO); 0.47T, 4 units of MPO) | r1 (Myeloperoxidase (MPO); 0.47T, 4 units of MPO, H2O2) | relaxivity increase (Myeloperoxidase (MPO); 0.47T, enzyme activity lowered to 1 unit) | fraction of the UV absorbance change observed within first 30 min (Myeloperoxidase (MPO); 10^4M, pH=7.2/25°, 4 units of MPO, excess H2O2) | conversion (Myeloperoxidase (MPO); HPLC after addition of MPO) | degree of polymerization (N) of oligomerized products (Myeloperoxidase (MPO); listed as Gd^3+2) | degree of polymerization (N) of oligomerized products (Myeloperoxidase (MPO); listed as bis-5-HT-DTPA(Gd)) | relaxivity (Myeloperoxidase (MPO); well plate at 1.5T, 4 units of MPO and H2O2, fitting of 3 wells) | minimum increase of relaxivity (Myeloperoxidase (MPO); well plate at 1.5T, range 10^−4 to 5 10^−4)
1 | more than 80% | 0.0063 s⁻¹ | 250 U and 250-650 U | approximately 40% | CC(C(=O)NCC(=O)NCCc1c[nH]c2ccc(O)cc12)N1CCN(CC(=O)[O-])CCN(CC(=O)[O-])CCN(CC(=O)[O-])CC1.[Gd+3] (stereo not shown) [5-HT-DOTA(Gd), Glycylmethyl DOTA(Gd) 5-Hydroxytryptamide] | – | – | – | – | – | – | – | – | –
2 | – | – | – | – | O=C([O-])CN(CCN(CC(=O)[O-])CC(=O)NCCc1c[nH]c2ccc(O)cc12)CCN(CC(=O)[O-])CC(=O)NCCc1c[nH]c2ccc(O)cc12.[Gd+3] [2Gd^3+] | 37% | 5.9 mM⁻¹ s⁻¹ | 32% | 90% | 99.5% | 1-4 | up to 5 | 5.5 mM⁻¹ s⁻¹ | ≥ 17%
